In patent US6667387B1, “HCV core peptides” (priority 1992, dated 2003):
Ends that are not written are not given here. * marks the point of attachment. Biotin = O=C1N[C@H]2[C@H](CS[C@H]2CCCCC(=O)*)N1

What was measured:
Assay type in all cases: binding, human
[1] = test system: antibodies to HTLV-I and HTLV-II (serum panel PRP203); assay: Line immunoassay (LIA) with biotinylated HTLV-I and HTLV-II peptides; conditions: sample nr. 12 of panel PRP203
Description: A number of these peptides were used to prepare LIA strips for the detection of antibodies of HTLV. Several of the peptides, such as I-p19 and I-gp46-4, which are derived from regions of the HTLV-I p19 gag protein and envelope glycoprotein, respectively, are expected to be recognized by antibodies produced as a result of both HTLV-I and HTLV-II infection since these sequences are highly homologous in the two viruses. Others, such as I-gp46-3, I-gp46-6 for HTLV-I, and II-gp52-1, II-gp52-2 and II-gp52-3 for HTLV-II may be useful for detection of antibodies as well as discrimination. Since there is some homology between the HTLV-I and HTLV-II sequences, cross-reactions are to be expected. Nevertheless, the intensities of the reactions to the various peptides should reveal the identity of the virus to which the antibodies were produced.
The LIA strips were evaluated using a commercially available serum panel (Boston Biomedia Inc., mixed titer panel, PRP203). The test results are in complete agreement with the analysis provided by distributor. […] This sample could not be differentiated using these peptides, nor could this sample be differentiated by any other test used by the distributor of the serum panel. Sample nr. […] In an additional experiment, an ELISA was performed using all 10 of the biotinylated HTLV-I and HTLV-II peptides. […]

[2] = test system: antibodies in antisera from HIV-2 infected persons; assay: ELISA with HIV-2 antibody-positive sera (biotinylated peptides on streptavidin- or avidin-coated plates, unbiotinylated peptides coated directly)
Protocol: (§1) Where peptides were to be coated directly, stock solutions of the peptides were diluted in sodium carbonate buffer, pH 9.6 and used to coat polystyrene microtiter plates at a peptide concentration of 2 to 5 micrograms per milliliter for 1 hour at 37° C.
(§2) In cases where biotinylated peptides were to be evaluated, plates were first coated with streptavidin in sodium carbonate buffer, pH 9.6 at a concentration of 3 micrograms per milliliter for 1 hour at 37° C. The plates were then washed to remove excess, unbound protein. A working solution of the biotinylated peptide at 1 microgram per milliliter in sodium carbonate buffer was then added to the wells of the microtiter plate and incubated for 1 hours at 37° C.
(§3) Once the plates had been coated with antigen, any remaining free binding sites on the plastic were blocked with casein. After washing, a dilution of the appropriate antisera, usually 1:100, was added to the wells of the plates and incubated for 1 hour at 37° C.
(§4) After washing to remove unbound material, specific antibody binding was detected by incubating the plates with goat anti-human immunoglobulin antibodies conjugated to the enzyme horseradish peroxidase. Following removal of unbound conjugate by washing, a solution containing H2O2 and 3,3′,5,5′-tetramethylbenzidine was added.
(§5) Reactions were stopped after a suitable interval by addition of sulfuric acid. […] Absorbance measurements were made at a wavelength of 450 nanometers and all data are expressed as an optical density value at this wavelength.
The biotinylated peptides were loaded onto microtiter plates which had been coated with streptavidin. Antibody binding to these peptides was compared to antibody binding to the unibiotinylated peptides which were coated directly onto microtiter plates. It is evident that the biotinylated peptides from the HIV-1 or HIV-2 transmembrane proteins bound to streptavidin are recognized very well by antisera from HIV-1 or HIV-2 infected persons respectively. This is in contrast to the unbiotinylated versions of these peptides coated directly onto the polystyrene plates.
(§6) To determine how well biotinylated peptides would function in a mixture when bound to streptavidin- or avidin-coated plates, two mixtures were made of the N-terminally biotinylated versions of the HIV-1 peptides TM-HIV-1 (hereabove referred to as 1a.1) and V3-nm (hereabove referred to as 1b.4), the HIV-2 peptide TM-HIV-2 (hereabove referred to as 2a), and the hepatitis C virus peptides II, IX, and XVIII. Mixture A contained each of the six biotinylated peptides at a concentration of 1 microgram per milliliter (6 micrograms per milliliter peptide, total) while in mixture B, each peptide was present at a concentration of 0.1 microgram per milliliter (0.6 microgram per milliliter peptide, total). The individual peptides were coated at a concentration of 1 microgram per milliliter. For purposes of comparison, mixtures A and B were also coated directly onto the wells of a microtiter plate. Samples from HIV-1, HIV-2, and HCV-seropositive donors were tested and compared to sera from seronegative blood donors. A cut-off absorbance value of 0.250 was used to determine whether a reaction was positive or negative. Absorbance values equal or greater than 0.250 were considered positive while absorbance values below this value were considered negative.
Two glycine residues were added at the N-terminus of each peptide to serve as a spacer and a biotin was coupled to the α-amino group of the resulting N-terminal glycine. The peptides were bound to streptavidin and coated in the wells of microwell plates. HIV-2 antibody-positive sera were used to evaluate these two peptides in an ELISA.

[3] = test system: antibodies in antisera from HIV-1 infected persons; assay: ELISA with HIV-1 antibody-positive sera (biotinylated peptides on streptavidin- or avidin-coated plates, unbiotinylated peptides coated directly)
Protocol: as §1, §2, §3, §4, §5
Experiments were performed to evaluate antibody recognition of short, 10 amino acid-long, N-acetylated peptides corresponding to other contained within the transmembrane proteins of HIV-1 and HIV-2. […] The peptides used for the comparison were as follows:
Antibody binding to these peptides was compared to antibody binding to the unibiotinylated peptides which were coated directly onto microtiter plates.
In order to evaluate antibody recognition of these two peptides, the peptides were bound individually to streptavidin-coated microtiter plates and tested using a panel of antisera from HIV-1 seropositive donors.
as §6
A spacer consisting of two glycine residues was added to the amino terminus.

[4] = ELISA with seronegative / negative control sera (specificity)
Procedure, shortened: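 Specificity readout is OD at 450 nm (HRP goat anti-human Ig, TMB/H2O2, sulfuric acid stop), with ≥0.250 counted positive. Seronegative donor sera (typically 1:100, 1 h, 37° C) were applied to casein-blocked wells coated with peptide directly or via streptavidin capture of biotinylated peptide.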

[5] = test system: antibodies in sera from HCV-seropositive donors; assay: ELISA with HCV antibody-positive sera (biotinylated peptides on streptavidin- or avidin-coated plates, unbiotinylated peptides coated directly); conditions: Table 8, Avidin
Procedure, shortened: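 Read-out is OD at 450 nm after HRP goat anti-human Ig and TMB development, following 1 h at 37° C. with seropositive or negative sera diluted 1:100 (or 20-fold). Antigen was either unbiotinylated peptide adsorbed on plastic (pH 9.6 carbonate, 2–5 or 3 μg/ml) or biotinylated peptide at 1 μg/ml captured on streptavidin-coated wells, with casein blocking.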

Bio Gly Gly Pro Pro Pro Pro Ser Ser Pro Thr His Asp Pro Pro Asp Ser Asp Pro Gln Ile Pro Pro Pro Tyr Val Glu Pro Thr Ala Pro Gln Val Leu (Biotin-GGPPPPSSPTHDPPDSDPQIPPPYVEPTAPQVL) [I-p19]
LIA reaction [1]: positive reaction

Bio-Gly-Gly-Gly-Ser-Trp-Gly-Cys-Ala-Phe-Arg-Gln-Val-Cys-NH2 (Biotin-GGGSWGCAFRQVC-NH2; cysteine pairing not given here) [TM-HIV-2 Bio]
optical density (450 nm) ([2]; Table 1, serum 53-3, HIV-2 positive): 2.365 | optical density (450 nm) ([2]; Table 1, serum 1400, HIV-2 positive): 1.982 | optical density (450 nm) ([2]; Table 1, serum AG, HIV-2 positive): 2.323 | optical density (450 nm) ([2]; Table 8, serum 1400 (HIV-2), Avidin): 1.781 | optical density (450 nm) ([2]; Table 8, serum AG (HIV-2), Avidin): 2.065 | optical density (450 nm) ([3]; Table 1, serum 0724, HIV-1 positive): 0.000 | optical density (450 nm) ([3]; Table 1, serum PL, HIV-1 positive): 0.000 | optical density (450 nm) ([3]; Table 1, serum VE, HIV-1 positive): 0.000 | optical density (450 nm) ([3]; Table 1, serum YEMO, HIV-1 positive): 0.000 | optical density (450 nm) ([3]; Table 1, serum mm, HIV-1 positive): 0.000 | optical density (450 nm) ([3]; Table 8, serum 3990 (HIV-1), Avidin): 0.054 | optical density (450 nm) ([3]; Table 8, serum DV (HIV-1), Avidin): 0.048 | optical density (450 nm) ([3]; Table 8, serum PL (HIV-1), Avidin): 0.051 | optical density (450 nm) ([3]; Table 8, serum YS (HIV-1), Avidin): 0.046 | optical density (450 nm) ([4]; Table 1, serum 180, seronegative donor): 0.000 | optical density (450 nm) ([4]; Table 1, serum 194, seronegative donor): 0.000 | optical density (450 nm) ([4]; Table 1, serum 195, seronegative donor): 0.000 | optical density (450 nm) ([4]; Table 1, serum 204, seronegative donor): 0.000 | optical density (450 nm) ([4]; Table 8, serum 1782 (blood donor), Avidin): 0.057 | optical density (450 nm) ([4]; Table 8, serum 1784 (blood donor), Avidin): 0.046 | optical density (450 nm) ([4]; Table 8, serum 1785 (blood donor), Avidin): 0.047 | optical density (450 nm) ([4]; Table 8, serum 1794 (blood donor), Avidin): 0.090 | optical density (450 nm) ([5]; serum 8243 (HCV)): 0.109 | optical density (450 nm) ([5]; serum 8247 (HCV)): 0.048 | optical density (450 nm) ([5]; serum 8248 (HCV)): 0.046 | optical density (450 nm) ([5]; serum 8269 (HCV)): 0.049 | optical density (450 nm) ([5]; serum 8273 (HCV)): 0.050 | optical density (450 nm) ([5]; serum 8278 (HCV)): 0.045 | optical density (450 nm) ([5]; serum 8285 (HCV)): 0.163 | optical density (450 nm) ([5]; serum 8290 (HCV)): 0.047 | optical density (450 nm) ([5]; serum 8291 (HCV)): 0.050
